# Biological target: human Bruton's Tyrosine Kinase (Btk) (Homo sapiens (Human), UniProt Q06187)
# Experiment: Recombinant Human Bruton's Tyrosine Kinase (Btk) Inhibition Assay (HTRF KinEASE-TK)
# Assay type: biochemical
# Settings: 20 ng/ml rhBtk, 77 μM ATP (KM), 1 μM TK-Biotin substrate, 90 min; read-out: hBTK IC50
# Sequence of human Bruton's Tyrosine Kinase (Btk) (Q06187 whole entry): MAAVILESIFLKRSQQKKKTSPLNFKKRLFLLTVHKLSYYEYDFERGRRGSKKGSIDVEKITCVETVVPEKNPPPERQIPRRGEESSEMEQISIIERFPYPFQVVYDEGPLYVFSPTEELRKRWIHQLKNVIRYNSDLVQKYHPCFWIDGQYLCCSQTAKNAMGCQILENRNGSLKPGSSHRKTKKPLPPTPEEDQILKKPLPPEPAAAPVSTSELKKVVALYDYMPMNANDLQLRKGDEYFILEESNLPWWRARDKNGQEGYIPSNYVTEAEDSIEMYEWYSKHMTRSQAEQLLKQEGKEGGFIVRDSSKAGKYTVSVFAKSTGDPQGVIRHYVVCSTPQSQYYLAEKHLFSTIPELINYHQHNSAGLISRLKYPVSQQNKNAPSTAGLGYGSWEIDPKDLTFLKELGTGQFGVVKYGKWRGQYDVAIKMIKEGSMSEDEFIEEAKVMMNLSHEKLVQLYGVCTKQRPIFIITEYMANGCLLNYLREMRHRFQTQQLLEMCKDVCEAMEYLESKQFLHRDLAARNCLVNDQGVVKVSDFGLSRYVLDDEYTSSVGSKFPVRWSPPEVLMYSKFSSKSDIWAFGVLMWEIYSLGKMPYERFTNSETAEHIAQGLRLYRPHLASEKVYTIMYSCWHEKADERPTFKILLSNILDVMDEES
row,SMILES,IC50
1,"Cc1c(-c2ncnc3[nH]c(-c4ccc(C(=O)NCC(F)(F)F)cc4)cc23)cccc1N1CCOc2cc(C3CC3)ccc2C1=O [Example K-7, 4-[4-[3-(8-cyclopropyl-5-oxo-2,3-dihydro-1,4-benzoxazepin-4-yl)-2-methyl-phenyl]-7H-pyrrolo[2,3-d]pyrimidin-6-yl]-N-(2,2,2-trifluoroethyl)benzamide]",> 1000 nM
2,"Cc1c(-c2ncnc3[nH]c(-c4ccc(C(=O)N5CC(O)C5)cc4)cc23)cccc1N1CCOc2cc(C3CC3)ccc2C1=O [Example K-8, 8-cyclopropyl-4-[3-[6-[4-(3-hydroxyazetidine-1-carbonyl)phenyl]-7H-pyrrolo[2,3-d]pyrimidin-4-yl]-2-methyl-phenyl]-2,3-dihydro-1,4-benzoxazepin-5-one]",360 nM
3,"Cc1c(-c2ncnc3[nH]c(-c4ccc(C(=O)N5CCCC5)cc4)cc23)cccc1N1CCOc2cc(C3CC3)ccc2C1=O [Example K-9, 8-cyclopropyl-4-[2-methyl-3-[6-[4-(pyrrolidine-1-carbonyl)phenyl]-7H-pyrrolo[2,3-d]pyrimidin-4-yl]phenyl]-2,3-dihydro-1,4-benzoxazepin-5-one]",137 nM
4,"COC1CCN(C(=O)c2ccc(-c3cc4c(-c5cccc(N6CCOc7cc(C8CC8)ccc7C6=O)c5C)ncnc4[nH]3)cc2)CC1 [Example K-10, 8-cyclopropyl-4-[3-[6-[4-(4-methoxypiperidine-1-carbonyl)phenyl]-7H-pyrrolo[2,3-d]pyrimidin-4-yl]-2-methyl-phenyl]-2,3-dihydro-1,4-benzoxazepin-5-one]",233 nM
5,"COC1CN(C(=O)c2ccc(-c3cc4c(-c5cccc(N6CCOc7cc(C8CC8)ccc7C6=O)c5C)ncnc4[nH]3)cc2)C1 [Example K-11, 8-cyclopropyl-4-[3-[6-[4-(3-methoxyazetidine-1-carbonyl)phenyl]-7H-pyrrolo[2,3-d]pyrimidin-4-yl]-2-methyl-phenyl]-2,3-dihydro-1,4-benzoxazepin-5-one]",162 nM
6,"Cc1c(-c2ncnc3[nH]c(-c4ccc(C(=O)N5CCCC5C(=O)O)cc4)cc23)cccc1N1CCOc2cc(C3CC3)ccc2C1=O (centres unmarked) [Example K-12, 1-[4-[4-[3-(8-cyclopropyl-5-oxo-2,3-dihydro-1,4-benzoxazepin-4-yl)-2-methyl-phenyl]-7H-pyrrolo[2,3-d]pyrimidin-6-yl]benzoyl]pyrrolidine-2-carboxylic acid]",114 nM
7,"Cc1c(-c2ncnc3[nH]c(-c4ccc(C(=O)N5CCCC(C(=O)O)C5)cc4)cc23)cccc1N1CCOc2cc(C3CC3)ccc2C1=O (centres unmarked) [Example K-13, 1-[4-[4-[3-(8-cyclopropyl-5-oxo-2,3-dihydro-1,4-benzoxazepin-4-yl)-2-methyl-phenyl]-7H-pyrrolo[2,3-d]pyrimidin-6-yl]benzoyl]piperidine-3-carboxylic acid]",133 nM
8,"Cc1c(-c2ncnc3[nH]c(-c4ccc(C(=O)N5CCC(C(=O)O)CC5)cc4)cc23)cccc1N1CCOc2cc(C3CC3)ccc2C1=O [Example K-14, 1-[4-[4-[3-(8-cyclopropyl-5-oxo-2,3-dihydro-1,4-benzoxazepin-4-yl)-2-methyl-phenyl]-7H-pyrrolo[2,3-d]pyrimidin-6-yl]benzoyl]piperidine-4-carboxylic acid]",> 1000 nM
9,"Cc1c(-c2ncnc3[nH]c(-c4ccc(C(=O)N5CCOCC5)cc4)cc23)cccc1N1CCc2cc(C3CC3)ccc2C1=O [Example K-15, 6-cyclopropyl-2-[2-methyl-3-[6-[4-(morpholine-4-carbonyl)phenyl]-7H-pyrrolo[2,3-d]pyrimidin-4-yl]phenyl]-3,4-dihydroisoquinolin-1-one]",130 nM
10,"Cc1c(-c2ncnc3[nH]c(-c4ccc(C(=O)N5CC(O)C5)cc4)cc23)cccc1N1CCc2cc(C3CC3)ccc2C1=O [Example K-17, 6-cyclopropyl-2-[3-[6-[4-(3-hydroxyazetidine-1-carbonyl)phenyl]-7H-pyrrolo[2,3-d]pyrimidin-4-yl]-2-methyl-phenyl]-3,4-dihydroisoquinolin-1-one]",41 nM
11,"Cc1c(-c2ncnc3[nH]c(-c4ccc(C(=O)N5CCN(C)CC5)cc4)cc23)cccc1N1CCc2cc(C3CC3)ccc2C1=O [Example K-18, 6-cyclopropyl-2-[2-methyl-3-[6-[4-(4-methylpiperazine-1-carbonyl)phenyl]-7H-pyrrolo[2,3-d]pyrimidin-4-yl]phenyl]-3,4-dihydroisoquinolin-1-one]",208 nM
12,"Cc1c(-c2ncnc3[nH]c(-c4ccc(C(=O)N5CCN(C)CC5)cc4)cc23)cccc1N1CCc2cc(C3CC3)ccc2C1=O [Example K-21, 6-cyclopropyl-2-[2-methyl-3-[6-[4-(4-methylpiperazine-1-carbonyl)phenyl]-7H-pyrrolo[2,3-d]pyrimidin-4-yl]phenyl]-3,4-dihydroisoquinolin-1-one]",> 1000 nM
13,"CC1(O)CN(C(=O)c2ccc(-c3cc4c(-c5cccc(N6CCOc7cc(C8CC8)cc(F)c7C6=O)c5CO)ccnc4[nH]3)nc2)C1 [Example L-4, 8-cyclopropyl-6-fluoro-4-[2-(hydroxymethyl)-3-[2-[5-(3-hydroxy-3-methyl-azetidine-1-carbonyl)-2-pyridyl]-1H-pyrrolo[2,3-b]pyridin-4-yl]phenyl]-2,3-dihydro-1,4-benzoxazepin-5-one]",43 nM
14,"Cc1c(-c2ncnc3[nH]c(-c4ccccc4)cc23)cccc1N1CCOc2cc(C3CC3)ccc2C1=O [Example M-1, 8-cyclopropyl-4-[2-methyl-3-(6-phenyl-7H-pyrrolo[2,3-d]pyrimidin-4-yl)phenyl]-2,3-dihydro-1,4-benzoxazepin-5-one]",> 1000 nM
15,"Cc1c(-c2ncnc3[nH]c(-c4ccccc4)cc23)cccc1N1CCc2cc(C3CC3)ccc2C1=O [Example M-2, 6-cyclopropyl-2-[2-methyl-3-(6-phenyl-7H-pyrrolo[2,3-d]pyrimidin-4-yl)phenyl]-3,4-dihydroisoquinolin-1-one]",> 1000 nM
16,"Cc1c(-c2ncnc3[nH]c(-c4ccc(N5CCOCC5)cc4)cc23)cccc1N1CCOc2cc(C3CC3)ccc2C1=O [Example M-3, 8-cyclopropyl-4-[2-methyl-3-[6-(4-morpholinophenyl)-7H-pyrrolo[2,3-d]pyrimidin-4-yl]phenyl]-2,3-dihydro-1,4-benzoxazepin-5-one]",> 1000 nM

# The next lines start with the values.
row,IC50,SMILES
1,181 nM,"Cc1c(-c2nc(N)nc3[nH]c(-c4ccc(N5CCOCC5)nc4)cc23)cccc1N1CCOc2cc(C3CC3)ccc2C1=O [Example N-2, 4-[3-[2-amino-6-(6-morpholino-3-pyridyl)-7H-pyrrolo[2,3-d]pyrimidin-4-yl]-2-methyl-phenyl]-8-cyclopropyl-2,3-dihydro-1,4-benzoxazepin-5-one]"
2,272 nM,"Cc1c(-c2ncnc3[nH]c(C4=CCN(CCCO)CC4)cc23)cccc1N1CCOc2cc(C3CC3)ccc2C1=O [Example P-1, 8-cyclopropyl-4-[3-[6-[1-(3-hydroxypropyl)-3,6-dihydro-2H-pyridin-4-yl]-7H-pyrrolo[2,3-d]pyrimidin-4-yl]-2-methyl-phenyl]-2,3-dihydro-1,4-benzoxazepin-5-one]"
3,611 nM,"Cc1c(-c2ncnc3[nH]c(C4=CCN(CCO)CC4)cc23)cccc1N1CCOc2cc(C3CC3)ccc2C1=O [Example P-2, 8-cyclopropyl-4-[3-[6-[1-(2-hydroxyethyl)-3,6-dihydro-2H-pyridin-4-yl]-7H-pyrrolo[2,3-d]pyrimidin-4-yl]-2-methyl-phenyl]-2,3-dihydro-1,4-benzoxazepin-5-one]"
4,> 1000 nM,"Cc1c(-c2ncnc3[nH]c(C4CCN(CCCO)CC4)cc23)cccc1N1CCOc2cc(C3CC3)ccc2C1=O [Example P-3, 8-cyclopropyl-4-[3-[6-[1-(3-hydroxypropyl)-4-piperidyl]-7H-pyrrolo[2,3-d]pyrimidin-4-yl]-2-methyl-phenyl]-2,3-dihydro-1,4-benzoxazepin-5-one]"
5,> 1000 nM,"Cc1c(-c2ncnc3[nH]c(C4=CCCNC4)cc23)cccc1N1CCOc2cc(C3CC3)ccc2C1=O [Example P-4, 8-cyclopropyl-4-[2-methyl-3-[6-(1,2,3,6-tetrahydropyridin-5-yl)-7H-pyrrolo[2,3-d]pyrimidin-4-yl]phenyl]-2,3-dihydro-1,4-benzoxazepin-5-one]"
6,82 nM,"CN1CCN(Cc2ccc(-c3cc4c(-c5cccc(N6CCOc7cc(C8CC8)ccc7C6=O)c5)c(C#N)cnc4[nH]3)cc2)CC1 [Example P-6, 4-[3-(8-cyclopropyl-5-oxo-2,3-dihydro-1,4-benzoxazepin-4-yl)phenyl]-2-[4-[(4-methylpiperazin-1-yl)methyl]phenyl]-1H-pyrrolo[2,3-b]pyridine-5-carbonitrile]"
7,46 nM,"O=C(O)c1ccc(-c2cc3c(-c4cccc(N5CCOc6cc(C7CC7)ccc6C5=O)c4CO)ccnc3[nH]2)nc1 [Example P-7, 6-[4-[3-(8-cyclopropyl-5-oxo-2,3-dihydro-1,4-benzoxazepin-4-yl)-2-(hydroxymethyl)phenyl]-1H-pyrrolo[2,3-b]pyridin-2-yl]pyridine-3-carboxylic acid]"
8,25 nM,"O=C1c2ccc(C3CC3)cc2OCCN1c1cccc(-c2ccnc3[nH]c(-c4ccc(C(O)CO)cc4)cc23)c1CO (centres unmarked) [Example P-8, 8-cyclopropyl-4-[3-[2-[4-(1,2-dihydroxyethyl)phenyl]-1H-pyrrolo[2,3-b]pyridin-4-yl]-2-(hydroxymethyl)phenyl]-2,3-dihydro-1,4-benzoxazepin-5-one]"
9,10 nM,"CS(=O)(=O)N1CC=C(c2cc3c(-c4cccc(N5CCOc6cc(C7CC7)cc(F)c6C5=O)c4CO)ccnc3[nH]2)CC1 [Example P-11, 8-cyclopropyl-6-fluoro-4-[2-(hydroxymethyl)-3-[2-(1-methylsulfonyl-3,6-dihydro-2H-pyridin-4-yl)-1H-pyrrolo[2,3-b]pyridin-4-yl]phenyl]-2,3-dihydro-1,4-benzoxazepin-5-one]"
10,22 nM,"O=C1c2c(F)cc(C3CC3)cc2OCCN1c1cccc(-c2ccnc3[nH]c(C4=CCN(C5COC5)CC4)cc23)c1CO [Example P-12, 8-cyclopropyl-6-fluoro-4-[2-(hydroxymethyl)-3-[2-[1-(oxetan-3-yl)-3,6-dihydro-2H-pyridin-4-yl]-1H-pyrrolo[2,3-b]pyridin-4-yl]phenyl]-2,3-dihydro-1,4-benzoxazepin-5-one]"

# From US9233983B2, “Substituted hetero-bicyclic compounds, compositions and medicinal applications thereof” (ADVINUS THERAPEUTICS LIMITED, priority 2012, dated 2016)
